# Measured values as given in patent US9908886B2 (Agency for Science, Technology and Research, priority 2012, dated 2018).
# Experiments:
# [1] = biological target: MNK2 (Homo sapiens (Human), UniProt Q9HBH9); test: In vitro MNK kinase assay (Caliper LabChip mobility shift); assay type: biochemical; settings: enzymatic, 250 μM ATP; read-out: IC50 Mnk2
# [2] = biological target: MNK1 (Homo sapiens, UniProt Q9BUB5); test: as above; assay type: biochemical; settings: enzymatic, 1.2 mM ATP; read-out: IC50 Mnk1
# MNK2, sequence (Q9HBH9 84-388): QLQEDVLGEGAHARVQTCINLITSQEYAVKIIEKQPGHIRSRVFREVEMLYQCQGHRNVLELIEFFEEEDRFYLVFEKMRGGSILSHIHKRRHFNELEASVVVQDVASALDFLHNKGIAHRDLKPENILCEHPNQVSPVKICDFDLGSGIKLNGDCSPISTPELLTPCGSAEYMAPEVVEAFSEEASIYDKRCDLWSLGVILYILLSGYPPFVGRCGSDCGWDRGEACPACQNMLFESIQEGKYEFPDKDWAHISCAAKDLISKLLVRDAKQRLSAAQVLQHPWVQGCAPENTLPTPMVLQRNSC
SMILES,IC50 [1] [µM],IC50 [2] [µM]
"CN1CCCN(C(=O)c2ccc(-c3ccc4ncc(-c5ccc(C#N)cc5)n4c3)cc2)CC1 [Example 103, 4-(6-(4-(4-methyl-1,4-diazepane-1-carbonyl)phenyl)imidazo[1,2-a]pyridin-3-yl)benzonitrile]",< 0.1,< 0.1
"CN1CCC(C2CCN(C(=O)c3ccc(-c4ccc5ncc(-c6ccc(C#N)cc6)n5c4)cc3)CC2)CC1 [Example 105, 4-(6-(4-(1′-methyl-4,4′-bipiperidine-1-carbonyl)phenyl)imidazo[1,2-a]pyridin-3-yl)benzonitrile]",< 0.1,< 0.1
"CC1(O)CCN(C(=O)c2ccc(-c3ccc4ncc(-c5ccc(C#N)cc5)n4c3)cc2)CC1 [Example 106, 4-(6-(4-(4-hydroxy-4-methylpiperidine-1-carbonyl)phenyl)imidazo[1,2-a]pyridin-3-yl)benzonitrile]",< 0.1,< 0.1
"N#Cc1ccc(-c2cnc3ccc(-c4ccc(C(=O)N5CCCNCC5)cc4)cn23)cc1 [Example 107, 4-(6-(4-(1,4-diazepane-1-carbonyl)phenyl)imidazo[1,2-a]pyridin-3-yl)benzonitrile]",< 0.1,< 0.1
"N#Cc1ccc(-c2cnc3ccc(-c4ccc(C(=O)N5CCC(N)CC5)cc4)cn23)cc1 [Example 109, 4-(6-(4-(4-aminopiperidine-1-carbonyl)phenyl)imidazo[1,2-a]pyridin-3-yl)benzonitrile]",< 0.1,< 0.1
"CS(=O)(=O)NC1CCN(C(=O)c2ccc(-c3ccc4ncc(-c5ccc(C#N)cc5)n4c3)cc2)CC1 [Example 111, N-(1-(4-(3-(4-cyanophenyl)imidazo[1,2-a]pyridin-6-yl)benzoyl)piperidin-4-yl)methanesulfonamide]",< 0.1,< 0.1
"CN(C)C1CCN(C(=O)c2ccc(-c3ccc4ncc(-c5ccc(C#N)cc5)n4c3)cc2)CC1 [Example 112, 4-(6-(4-(4-(dimethylamino)piperidine-1-carbonyl)phenyl)imidazo[1,2-a]pyridin-3-yl)benzonitrile]",< 0.1,< 0.1
"CCC1(N)CCN(C(=O)c2ccc(-c3ccc4ncc(-c5ccc(C#N)cc5)n4c3)cc2)CC1 [Example 113, 4-(6-(4-(4-amino-4-ethylpiperidine-1-carbonyl)phenyl)imidazo[1,2-a]pyridin-3-yl)benzonitrile]",< 0.1,< 0.1
"N#Cc1ccc(-c2cnc3ccc(-c4ccc(C(=O)NCC(=O)N5CCOCC5)cc4)cn23)cc1 [Example 115, 4-(3-(4-cyanophenyl)imidazo[1,2-a]pyridin-6-yl)-N-(2-morpholino-2-oxoethyl)benzamide]",< 1,< 1
"N#Cc1ccc(-c2cnc3ccc(-c4ccc(C(=O)NCCN5CCOCC5)cc4)cn23)cc1 [Example 116, 4-(3-(4-cyanophenyl)imidazo[1,2-a]pyridin-6-yl)-N-(2-morpholinoethyl)benzamide]",< 1,< 1
"N#Cc1ccc(-c2cnc3ccc(-c4ccc(C(=O)N5CCC6(CCCCN6)CC5)cc4)cn23)cc1 [Example 117, 4-(6-(4-(1,9-diazaspiro[5.5]undecane-9-carbonyl)phenyl)imidazo[1,2-a]pyridin-3-yl)benzonitrile]",< 0.1,< 0.1
"CC(=O)N1CCCCC12CCN(C(=O)c1ccc(-c3ccc4ncc(-c5ccc(C#N)cc5)n4c3)cc1)CC2 [Example 118, 4-(6-(4-(1-acetyl-1,9-diazaspiro[5.5]undecane-9-carbonyl)phenyl)imidazo[1,2-a]pyridin-3-yl)benzonitrile]",< 0.1,< 0.1
"CN1CCCCC12CCN(C(=O)c1ccc(-c3ccc4ncc(-c5ccc(C#N)cc5)n4c3)cc1)CC2 [Example 119, 4-(6-(4-(1-methyl-1,9-diazaspiro[5.5]undecane-9-carbonyl)phenyl)imidazo[1,2-a]pyridin-3-yl)benzonitrile]",< 0.1,< 0.1
"CN(C(=O)c1ccc(-c2ccc3ncc(-c4ccc(C#N)cc4)n3c2)cc1)c1ccncc1 [Example 122, 4-(3-(4-cyanophenyl)imidazo[1,2-a]pyridin-6-yl)-N-methyl-N-(pyridin-4-yl)benzamide]",< 1,< 1
"N#Cc1ccc(-c2cnc3ccc(-c4ccc(C(=O)N5CCC(CN)CC5)cc4)cn23)cc1 [Example 123, 4-(6-(4-(4-(aminomethyl)piperidine-1-carbonyl)phenyl)imidazo[1,2-a]pyridin-3-yl)benzonitrile]",< 0.1,< 0.1
"N#Cc1ccc(-c2cnc3ccc(-c4ccc(C(=O)N5CCC(CCN)CC5)cc4)cn23)cc1 [Example 124, 4-(6-(4-(4-(2-aminoethyl)piperidine-1-carbonyl)phenyl)imidazo[1,2-a]pyridin-3-yl)benzonitrile]",< 0.1,< 0.1
"N#Cc1ccc(-c2cnc3ccc(-c4ccc(C(=O)N5CCN(C(=O)c6ccccc6)CC5)cc4)cn23)cc1 [Example 126, 4-(6-(4-(4-benzoylpiperazine-1-carbonyl)phenyl)imidazo[1,2-a]pyridin-3-yl)benzonitrile]",< 0.1,< 0.1

SMILES,IC50 [1] [µM],IC50 [2] [µM]
"N#Cc1ccc(-c2cnc3ccc(-c4ccc(C(=O)N5CCN(Cc6ccc(C(N)=O)cc6)CC5)cc4)cn23)cc1 [Example 129, 4-((4-(4-(3-(4-cyanophenyl)imidazo[1,2-a]pyridin-6-yl)benzoyl)piperazin-1-yl)methyl)benzamide]",< 0.1,< 1
"CN1CCN(C(=O)c2ccc(-c3ccc4ncc(-c5ccc(C#N)cc5)n4c3)cc2)CC1=O [Example 130, 4-(6-(4-(4-methyl-3-oxopiperazine-1-carbonyl)phenyl)imidazo[1,2-a]pyridin-3-yl)benzonitrile]",< 0.1,< 0.1
"N#Cc1ccc(-c2cnc3ccc(-c4ccc(C(=O)N5CCC(N6CCOCC6)CC5)cc4)cn23)cc1 [Example 134, 4-(6-(4-(4-morpholinopiperidine-1-carbonyl)phenyl)imidazo[1,2-a]pyridin-3-yl)benzonitrile]",< 0.1,< 0.1
"Cc1nnc(C2(C)CCN(C(=O)c3ccc(-c4ccc5ncc(-c6ccc(C#N)cc6)n5c4)cc3)CC2)o1 [Example 135, 4-(6-(4-(4-methyl-4-(5-methyl-1,3,4-oxadiazol-2-yl)piperidine-1-carbonyl)phenyl)imidazo[1,2-a]pyridin-3-yl)benzonitrile]",< 0.1,< 0.1
"Cc1cc2ncc(-c3ccc(C#N)cc3)n2cc1-c1ccc(C(=O)N2CCC(C)(N)CC2)cc1 [Example 137, 4-(6-(4-(4-amino-4-methylpiperidine-1-carbonyl)phenyl)-7-methylimidazo[1,2-a]pyridin-3-yl)benzonitrile]",< 0.1,< 1
"Cc1cc2ncc(-c3ccc(C#N)cc3)n2cc1-c1ccc(C(=O)N2CCN(C)CC2)cc1 [Example 138, 4-(7-methyl-6-(4-(4-methylpiperazine-1-carbonyl)phenyl)imidazo[1,2-a]pyridin-3-yl)benzonitrile]",< 1,< 1
"CN1CCN(C(=O)c2ccc(-c3ccc4ncc(-c5ccc(C#N)cc5)n4c3)c(F)c2)CC1 [Example 140, 4-(6-(2-fluoro-4-(4-methylpiperazine-1-carbonyl)phenyl)imidazo[1,2-a]pyridin-3-yl)benzonitrile]",< 0.1,< 0.1
"CN1CCN(C(=O)c2ccc(-c3ccc4ncc(-c5ccc(C#N)cc5)n4c3)cc2Cl)CC1 [Example 141, 4-(6-(3-chloro-4-(4-methylpiperazine-1-carbonyl)phenyl)imidazo[1,2-a]pyridin-3-yl)benzonitrile]",< 0.1,< 0.1
"CN1CCN(C(=O)c2ccc(-c3ccc4ncc(-c5ccc(C#N)cc5)n4c3)cc2F)CC1 [Example 142, 4-(6-(3-fluoro-4-(4-methylpiperazine-1-carbonyl)phenyl)imidazo[1,2-a]pyridin-3-yl)benzonitrile]",< 0.1,< 1
"CN1CCN(C(=O)c2ccc(-c3ccc4ncc(-c5ccc(C#N)cc5)n4c3)cc2C(F)(F)F)CC1 [Example 145, 4-(6-(4-(4-methylpiperazine-1-carbonyl)-3-(trifluoromethyl)phenyl)imidazo[1,2-a]pyridin-3-yl)benzonitrile]",< 1,< 0.1
"CN1CCN(C(=O)c2ccc(-c3ccc4ncc(-c5ccc(C#N)cc5)n4c3)cc2N)CC1 [Example 146, 4-(6-(3-amino-4-(4-methylpiperazine-1-carbonyl)phenyl)imidazo[1,2-a]pyridin-3-yl)benzonitrile]",< 0.1,< 0.1
"CN1CCN(C(=O)c2ccc(-c3ccc4ncc(-c5ccc(C#N)cc5)n4c3)cc2N(C)C)CC1 [Example 147, 4-(6-(3-(dimethylamino)-4-(4-methylpiperazine-1-carbonyl)phenyl)imidazo[1,2-a]pyridin-3-yl)benzonitrile]",< 0.1,< 0.1
"CC(=O)Nc1cc(-c2ccc3ncc(-c4ccc(C#N)cc4)n3c2)ccc1C(=O)N1CCN(C)CC1 [Example 149, N-(5-(3-(4-cyanophenyl)imidazo[1,2-a]pyridin-6-yl)-2-(4-methylpiperazine-1-carbonyl)phenyl)acetamide]",< 1,< 1
"CNc1cc(-c2ccc3ncc(-c4ccc(C#N)cc4)n3c2)ccc1C(=O)N1CCN(C)CC1 [Example 150, 4-(6-(3-(methylamino)-4-(4-methylpiperazine-1-carbonyl)phenyl)imidazo[1,2-a]pyridin-3-yl)benzonitrile]",< 0.1,< 0.1
"CNc1cc(-c2ccc3ncc(-c4ccc(C#N)cc4)n3c2)ccc1C(=O)N1CCOCC1 [Example 151, 4-(6-(3-(methylamino)-4-(morpholine-4-carbonyl)phenyl)imidazo[1,2-a]pyridin-3-yl)benzonitrile]",< 0.1,< 1
CN1CCN(C(=O)c2ccc(-c3ccc4ncc(-c5ccc(C#N)cc5)n4c3)c(Cl)c2)CC1 [Example 153],< 1,< 1
Cc1cc(-c2ccc3ncc(-c4ccc(C#N)cc4)n3c2)ccc1C(=O)N1CCOCC1 [Example 156],< 1,< 1
